Here are results for 1 compound from patent US20220389477A1, “METHOD FOR EVALUATING ANTIBIOTIC SUSCEPTIBILITY” (Vrije Universiteit Brussel, priority 2019, published 2022).

Converted amounts (≈) assume the structure as drawn. Like-named read-outs stand apart in the source and are kept apart here.

Assay [1] deals with E-coli. The note with it: tabulated, known value, cited from earlier work.
For assay [2], the system named is Escherichia coli culture. Briefly: Optical third-derivative MIC method, culture in broth. The assay is classed as cell-based. The note with it: EC/03D177; for MIC: Escherichia coli. From the text:
The method of FIG. 1 starts at a time equal to zero, t0 (1). Preferably, said t0 is the moment a pure bacteria culture is finished being prepared. Alternatively, said t0 is the moment all wells contain both said bacteria culture and said antimicrobial drug. After the starting of the experiment each well is periodically illuminated with a light source and the intensity of the transmitted light is detected with a photodetector (2). Preferably, each well is illuminated and the intensity of the transmitted light is detected every hour (2). More preferably, each well is illuminated and the intensity of the transmitted light is detected every 5 to 15 min. After a predetermined time length, preferably after 4 hours, a first, a second and a third derivative of said measured intensity is calculated (3) in a first and a second time frame for each well. Preferably, said second time frame is the last measured time frame after the test has been running for said predetermined time length, and said first time frame is the time frame preceding the second time frame. More preferably, said first time frame is between two and three hours and said second time frame is between three and four hours. After the calculation of said derivatives, said first derivative in said second time frame of said reference well is compared to a growth speed threshold value (4). Preferably, said growth speed threshold value is 0.166 (4). If said first derivative in said second time frame of said reference well is larger than or equal to said growth speed threshold value said bacteria culture is classified as Type I (4). If said first derivative in said second time frame of said reference well is smaller than said growth speed threshold value said bacteria culture is classified as Type II (4). Subsequently, independent of the classification of the bacteria culture according to the two types, the method comprises the following steps which are performed for each well or for all wells except said reference well. Both said first and said second time frames are evaluated to see if there is an inflection point present in the second derivative in said first and/or said second time frame (5).
If said first and/or said second time frame comprise said inflection point than said third derivative in said first time frame is compared to said third derivative in said second time frame (6). If said third derivative in said first time frame is larger than said third derivative in said second time frame, then said first time frame and said second time frame are selected as a first and second time frame to be used in a minimal inhibitory concentration determination method (10). If said third derivative in said first time frame is not larger than said third derivative in said second time frame, then said well is illuminated again after a certain time period, preferably an hour, more preferably 5 to 15 min after said predetermined time length said, with a light source and the intensity of the transmitted light is detected with a photodetector forming a new time frame subsequent to said second time frame (7). A third derivative, and possibly also a first and/or a second derivative, is calculated in said new time frame (7). Further, in step (7) a new first time frame is put equal to said second time frame and a new second time frame to equal to said new time frame. Subsequently, said third derivative in said new first time frame is compared to said third derivative in said new second time frame (8). If said derivative in said new first time frame is larger than said third derivative in said new second time frame, then said new first time frame and said new second time frame are selected as a first and second time frame to be used in a minimal inhibitory concentration determination method (10). […]

For assay [3], the system named is Escherichia coli culture. Description: E-test. The assay is classed as cell-based. Particulars: culture EC/03D177.
Assay [4] deals with Escherichia coli culture. Description: Broth microdilution (BMD). In kind it is cell-based. Particulars: culture EC/03D177. (In general: In broth dilution the organism is exposed to a series of concentrations in liquid medium.)

For the compound `CC1(C)S[C@@H]2[C@H](NC(=O)[C@H](N)c3ccccc3)C(=O)N2[C@H]1C(=O)O` [ampicillin], the MIC for Ampiciline in assay [1] (Colony ID. 03D161) is 4 µg/mL; in assay [1] (Colony ID. 03D177) it was 2 µg/mL; in assay [1] (Colony ID. 03D179) it was above 32 µg/mL. The “heteroresistance determined by the method” value in assay [2] (FIG. 5D, overall conclusion) is recorded as “not heteroresistant”. In addition, the “HR? at MIC (25%)” value in assay [2] (ratio MIC T2/T1) is listed as “yes (If the ratio of the MIC value in the second time frame over the MIC value in the first time frame is higher than or equal to 8 then the ratio is labelled to be heteroresistant)”. Further, in assay [2] (ratio MIC T2/T1), the “HR? at MIC (40%)” value is recorded as “no (If the ratio of the MIC value in the second time frame over the MIC value in the first time frame is lower than or equal to 4 then the ratio is labelled not to be heteroresistant)”. The “HR? at MIC (60%)” value in assay [2] (ratio MIC T2/T1) is recorded as “no (If the ratio of the MIC value in the second time frame over the MIC value in the first time frame is lower than or equal to 4 then the ratio is labelled not to be heteroresistant)”. In addition, the “HR? at MIC (75%)” value in assay [2] (ratio MIC T2/T1) is on record as “no (If the ratio of the MIC value in the second time frame over the MIC value in the first time frame is lower than or equal to 4 then the ratio is labelled not to be heteroresistant)”. Besides, the minimum inhibitory concentration (MIC) in assay [2] (3 h-4 h, read-out: MIC (25%) T1) is 2 µg/mL (≈ 5.72 µM); in assay [2] (3 h-4 h, read-out: MIC (40%) T1), 2 µg/mL (≈ 5.72 µM); in assay [2] (3 h-4 h, read-out: MIC (60%) T1), 2 µg/mL (≈ 5.72 µM); in assay [2] (3 h-4 h, read-out: MIC (75%) T1) it was 2 µg/mL (≈ 5.72 µM); in assay [2] (4 h-5 h, read-out: MIC (25%) T2), 8 µg/mL (≈ 22.9 µM); in assay [2] (4 h-5 h, read-out: MIC (40%) T2) it was 2 µg/mL (≈ 5.72 µM). Moreover, the minimal inhibitory concentration (MIC) was 2 µg/mL (≈ 5.72 µM) in assay [2] (4 h-5 h, read-out: MIC (60%) T2); 2 µg/mL (≈ 5.72 µM) in assay [2] (4 h-5 h, read-out: MIC (75%) T2); 2 µg/mL (≈ 5.72 µM) in assay [2] (FIG. 5D, overall conclusion, read-out: MIC value determined by the method); 2 µg/mL (≈ 5.72 µM) in assay [3] (Escherichia coli); 4 µg/mL (≈ 11.4 µM) in assay [4]. Moreover, in assay [3], the “HR? (E-test)” value is on record as “no”.

What is called MIC is the smallest concentration in the dilution series that meets the test's criterion for growth inhibition.
